Source: patent publication US20260256756A1, “USE OF PIPERIDINE ALKENE COMPOUND IN PREPARATION OF DRUG FOR TREATING CANCER” (JIANGSU HANSOH PHARMACEUTICAL GROUP CO., LTD., priority 2023, published 2026)
Each block holds one compound with its values, some of them ahead of it.

Columns and labels:
CAOV-3 cells = assay: In vitro proliferation inhibition (CellTiter-Glo), CAOV-3; format: cell-based; conditions: Homo sapiens; CAOV-3, ovarian cancer, HRD-positive (low expression of ATM protein); 6-10 days culture
Excerpt: […]
(§1) Experimental data processing method: The luminescence signal value was used to calculate the inhibition rate. […]

[1] = system: BRCA2 Knockout DLD-1 cells; assay: In vitro proliferation inhibition (CellTiter-Glo), BRCA2 Knockout DLD-1; format: cell-based; conditions: Homo sapiens; DLD-1, colorectal cancer, BRCA2 deletion; 6-10 days culture
Excerpt: […]
as §1

[2] = system: human ovarian cancer OV-10-0060 xenograft tumor; assay: Subcutaneous xenograft tumor model of human ovarian cancer OV-10-0060; format: in vivo, BALB/c nude mice
Excerpt: • 1. Experimental objective: To evaluate the in vivo efficacy of the compound in a subcutaneous xenograft tumor model of human ovarian cancer OV-10-0060 in nude mice. • 2. Reagent • HPMC (A1921068, Shanghai Aladdin Biochemical Technology Co., Ltd.), DMEM medium (11995-065, Gibco) • 3. Experimental operations and data processing • 3.1 Animals: BALB/c nude mice, 6-8 weeks old, female, purchased from the Laboratory Animal Business Department of Shanghai Institute of Planned Parenthood Research. • 3.2 Animal modeling • Tumor tissues were harvested from ovarian cancer xenograft model OV-10-0060 tumor-bearing mice and cut into tumor fragments with a diameter of 2-3 mm, which were subcutaneously inoculated into the right anterior scapula region of BALB/c nude mice. • 3.3 Tumor measurement and grouping in tumor-bearing mice • Prior to drug administration, all animals were weighed, and tumor volumes were measured using a vernier caliper. The tumor volume was calculated as: tumor volume (mm^3)=length (mm)×width (mm)×width (mm)/2. According to the body weight of tumor-bearing mice and the size of the tumor, the mice were grouped by random grouping. • 3.4 Administration in tumor-bearing mice • According to the grouping results, the test drug was started to be administered (administration method: oral administration; administration volume: 10 mL/kg; administration frequency: once/day; administration cycle: 28 days; vehicle: 0.5% HPMC). Tumor measurement and weighing were performed twice a week after starting administration of test drugs. The animals were euthanized at the end of the experiment. • 3.5 Data processing • Data processing was performed using software such as GraphPad Prism. The tumor inhibitory efficacy of the compound was evaluated by TGI (%) and ΔT/ΔC (%). ΔT/ΔC (%)=(T−T0)/(C−C0)×100, where T and C are the tumor volumes of the treatment group and the vehicle control group at the end of the experiment, respectively, and T0 and C0 are the tumor volumes of the treatment group and the vehicle control group at the beginning of the experiment, respectively. Tumor growth inhibition (TGI) (%)=100−ΔT/ΔC (%). Tumor growth inhibition (TGI) (%)=100−(T−T0)/T0×100 when tumor regression occurs • 4. Experimental results and conclusions

[3] = OV-10-0060, 10 mg/kg oral once/day, Day 27
[4] = OV-10-0060, 100 mg/kg oral once/day, Day 27

IC50 [1]: 2.6 ± 0.6 nM
SMILES: CCc1cc2ncc(CN3CCN(c4ccc(C(=O)NC)nc4)CC3)cc2[nH]c1=O [AZD5305]
IC50 (CAOV-3 cells): 4 ± 0.8 nM | Tumor volume (Mean ± SEM) ([2]; OV-10-0060, 10 mg/kg oral once/day, Day 0): 124 ± 4 mm^3 | T/C [2, 3]: 61.08% | TGI [2, 3]: 41.19% | Tumor volume (Mean ± SEM) [2, 3]: 1,378 ± 99 mm^3

IC50 [1]: 160 ± 66 nM
SMILES: O=C(c1cc(Cc2n[nH]c(=O)c3ccccc23)ccc1F)N1CCN(C(=O)C2CC2)CC1 [Olaparib]
IC50 (CAOV-3 cells): 151 ± 18 nM | Tumor volume (Mean ± SEM) ([2]; OV-10-0060, 100 mg/kg oral once/day, Day 0): 124 ± 4 mm^3 | T/C [2, 4]: 79.24% | TGI [2, 4]: 22.00% | Tumor volume (Mean ± SEM) [2, 4]: 1,787 ± 158 mm^3
